Reference: patent publication EP4725490A1, “EED INHIBITOR SOLID DISPERSION, ORAL FORMULATION COMPRISING SAME, AND PREPARATION METHOD THEREFOR” (Ascentage Pharma (Suzhou) Co., Ltd., priority 2023, dated 2024)
≈ marks a conversion by molar mass, not a printed value.

Experiments:
[1] = Solubility of compound A in various solvents (standard solubility determination); format: physicochemical; conditions: organic solvent or mixture, 25 °C
Protocol: The solubility (25 °C) of the active ingredient compound A in various solvents was determined using a standard solubility determination method well known in the art.

[2] = Solubility of compound A in aqueous buffer; format: physicochemical; conditions: pH 1.2, aqueous buffer, thermodynamic from solid, pH of 1.2 to 7.4, 37 °C/24 h
From the text: The starting material of compound A is an anhydrous crystal powder with slight hygroscopicity, which is almost insoluble in water. […] For such drugs with poor water solubility, the dissolution of the drugs in gastrointestinal fluids is the rate-limiting step of their bioavailability, and poor water solubility will necessarily lead to low dissolution and thus lower bioavailability. Therefore, if the bioavailability of the drug is to be improved, the dosage form, formula composition, and process need to be specially designed to change the dispersion state of the drug and promote its dissolution in the gastrointestinal tract.

solubility ([1]; Acetonitrile): 1.2 mg/mL (≈ 2.28 mM) | solubility ([1]; DMF): 33 mg/mL (≈ 62.7 mM) | solubility ([1]; DMSO): 33 mg/mL (≈ 62.7 mM) | solubility ([1]; Dichloromethane): 10 mg/mL (≈ 19 mM) | solubility ([1]; Ethanol): 1.1 mg/mL (≈ 2.09 mM) | solubility ([1]; Methanol: dichloromethane (1:1)): 28.5 mg/mL (≈ 54.1 mM) | solubility ([1]; Methanol: dichloromethane (1:2)): 50 mg/mL (≈ 95 mM) | solubility ([1]; Methanol: dichloromethane (1:3)): 83 mg/mL (≈ 158 mM) | solubility ([1]; Methanol: dichloromethane (1:4)): 83 mg/mL (≈ 158 mM) | solubility ([1]; Methanol: dichloromethane (1:5)): 83 mg/mL (≈ 158 mM) | solubility ([1]; Methanol: dichloromethane (2:1)): 14.3 mg/mL (≈ 27.2 mM) | solubility ([1]; Methanol: dichloromethane (3:1)): 7.7 mg/mL (≈ 14.6 mM) | solubility ([1]; Methanol): 4.3 mg/mL (≈ 8.17 mM) | solubility ([1]; N-methylpyridine): 11 mg/mL (≈ 20.9 mM) | solubility ([1]; Tetrahydrofuran): 2 mg/mL (≈ 3.8 mM) | solubility ([1]; Toluene): 3.3 mg/mL (≈ 6.27 mM) | solubility at 24 h [2]: 0.08 to 0.39 µg/mL (≈ 0.000152 to 0.000741 mM)
SMILES: CC(C)N1Cc2cc(C(F)(F)F)ncc2-c2cnc(NCc3c(F)ccc4c3CCO4)n3cnc(c23)C1=O [compound A, 12-(((5-fluoro-2,3-dihydrobenzofuran-4-yl)methyl)amino)-4-isopropyl-7-(trifluoromethyl)-4,5-dihydro-3H-2,4,8,11,12a-pentaazabenzo[4,5]cycloocta[1,2,3-cd]inden-3-one]
